Organism: Rattus norvegicus
Assay: Open TG-GATES - Regimen: Daily Repeat
Type: toxicity, organism-based, Sprague-Dawley
Parameters: regimen Daily Repeat, gender Male, age 6 weeks
Conditions: in vivo, po, route gavage; for gamma-GTP / ALP / ALT / AST / BUN / CRE / Ca / Cl / DBIL / GLC / IP / K / LDH / Na / PL / RALB / TBIL / TC / TG / TP: tissue Plasma; for APTT / Bas / Eos / Fbg / Ht / Lym / MCH / MCHC / MCV / Mono / Neu / PT / Plat / RBC / Ret / WBC: tissue Blood; for KIDNEY_L / KIDNEY_R / KIDNEY_TOTAL: tissue Kidney; for LIVER: tissue Liver
[1] = 30 mg/kg, 72 h, dose level Middle, time 3 day
[2] = 30 mg/kg, […], dose level Middle, time 7 day
[3] = 30 mg/kg, […], dose level Middle, time 14 day
[4] = 30 mg/kg, […], dose level Middle, time 28 day
[5] = 100 mg/kg, 72 h, dose level High, time 3 day
[6] = 100 mg/kg, […], dose level High, time 7 day
[7] = 100 mg/kg, […], dose level High, time 14 day
[8] = 100 mg/kg, […], dose level High, time 28 day

## Cc1cccc(Nc2cc(Cl)nc(SCC(=O)O)n2)c1C [PIRINIXIC ACID]
10 mg/kg, […], dose level Low, time 28 day
  gamma-GTP: 1.2 IU/L
[1]
  TERMINAL_BW: 229.5 g
  APTT: 15.8 s
  Bas: 0%
  Eos: 0.8%
  Fbg: 199.8 mg/dL
  Ht: 39.5%
  Lym: 71.6%
  MCH: 21.7 pg
  MCHC: 34.3%
  MCV: 63.4 fL
  Mono: 3.2%
  Neu: 23.8%
  PT: 12.4 s
  Plat: 106.4 x10_4/uL
  RBC: 623.8 x10_4/ul
  Ret: 5.5%
  WBC: 85.4 x10_2/uL
  KIDNEY_L: 1 g
  KIDNEY_R: 1 g
  KIDNEY_TOTAL: 2 g
  LIVER: 15.1 g
  ALP: 1953.2 IU/L
  ALT: 77.6 IU/L
  AST: 112 IU/L
  BUN: 14 mg/dL
  CRE: 0.2 mg/dL
  Ca: 10.7 mg/dL
  Cl: 106.4 meq/L
  DBIL: 0.02 mg/dL
  GLC: 192.6 mg/dL
  IP: 7.1 mg/dL
  K: 4 meq/L
  LDH: 167 IU/L
  Na: 143.6 meq/L
  PL: 106.2 mg/dL
  RALB: 2.6 g/dL
  TBIL: 0.026 mg/dL
  TC: 51 mg/dL
  TG: 31.4 mg/dL
  TP: 5.2 g/dL
  gamma-GTP: 1 IU/L
[2]
  TERMINAL_BW: 270.6 g
  APTT: 18 s
  Bas: 0%
  Eos: 0.8%
  Fbg: 230.8 mg/dL
  Ht: 37.9%
  Lym: 76.6%
  MCH: 22.1 pg
  MCHC: 34%
  MCV: 64.9 fL
  Mono: 3.2%
  Neu: 19%
  PT: 12.7 s
  Plat: 115.8 x10_4/uL
  RBC: 585.4 x10_4/ul
  Ret: 5.5%
  WBC: 114.2 x10_2/uL
  KIDNEY_L: 1.2 g
  KIDNEY_R: 1.1 g
  KIDNEY_TOTAL: 2.3 g
  LIVER: 21.7 g
  ALP: 1797.4 IU/L
  ALT: 53 IU/L
  AST: 71.8 IU/L
  BUN: 19.4 mg/dL
  CRE: 0.2 mg/dL
  Ca: 11.2 mg/dL
  Cl: 103 meq/L
  DBIL: 0.014 mg/dL
  GLC: 191.8 mg/dL
  IP: 7 mg/dL
  K: 4.1 meq/L
  LDH: 180.2 IU/L
  Na: 142.2 meq/L
  PL: 139 mg/dL
  RALB: 2.9 g/dL
  TBIL: 0.032 mg/dL
  TC: 71.6 mg/dL
  TG: 46 mg/dL
  TP: 6.1 g/dL
  gamma-GTP: 1 IU/L
[3]
  TERMINAL_BW: 309.3 g
  APTT: 16.4 s
  Bas: 0%
  Eos: 1%
  Fbg: 214 mg/dL
  Ht: 38.2%
  Lym: 76.8%
  MCH: 21.1 pg
  MCHC: 34.8%
  MCV: 60.5 fL
  Mono: 3.6%
  Neu: 18.2%
  PT: 12.8 s
  Plat: 136.3 x10_4/uL
  RBC: 631.8 x10_4/ul
  Ret: 4.3%
  WBC: 121.9 x10_2/uL
  KIDNEY_L: 1.4 g
  KIDNEY_R: 1.3 g
  KIDNEY_TOTAL: 2.7 g
  LIVER: 25.2 g
  ALP: 1895.2 IU/L
  ALT: 48.2 IU/L
  AST: 66.6 IU/L
  BUN: 19.2 mg/dL
  CRE: 0.2 mg/dL
  Ca: 10.5 mg/dL
  Cl: 102.6 meq/L
  DBIL: 0.016 mg/dL
  GLC: 194.6 mg/dL
  IP: 7.1 mg/dL
  K: 3.9 meq/L
  LDH: 114 IU/L
  Na: 141.8 meq/L
  PL: 144.4 mg/dL
  RALB: 2.9 g/dL
  TBIL: 0.034 mg/dL
  TC: 69.6 mg/dL
  TG: 51.6 mg/dL
  TP: 6.1 g/dL
  gamma-GTP: 1.4 IU/L
[4]
  TERMINAL_BW: 373.2 g
  APTT: 15.2 s
  Bas: 0%
  Eos: 1%
  Fbg: 223.8 mg/dL
  Ht: 39.5%
  Lym: 78%
  MCH: 19.6 pg
  MCHC: 34.9%
  MCV: 56.2 fL
  Mono: 3%
  Neu: 17.6%
  PT: 12.4 s
  RBC: 703.4 x10_4/ul
  Ret: 3.3%
  WBC: 108.3 x10_2/uL
  KIDNEY_L: 1.5 g
  KIDNEY_R: 1.5 g
  KIDNEY_TOTAL: 3 g
  LIVER: 29.4 g
  ALP: 1970.8 IU/L
  ALT: 47.2 IU/L
  AST: 62.4 IU/L
  BUN: 18.2 mg/dL
  CRE: 0.2 mg/dL
  Ca: 10.7 mg/dL
  Cl: 102.8 meq/L
  DBIL: 0.012 mg/dL
  GLC: 189.2 mg/dL
  IP: 7.2 mg/dL
  K: 3.7 meq/L
  LDH: 111.4 IU/L
  Na: 141.6 meq/L
  PL: 149 mg/dL
  RALB: 3 g/dL
  TBIL: 0.05 mg/dL
  TC: 70.6 mg/dL
  TG: 55.4 mg/dL
  TP: 6.5 g/dL
  gamma-GTP: 1.2 IU/L
[5]
  TERMINAL_BW: 236.1 g
  APTT: 16.4 s
  Bas: 0%
  Eos: 1%
  Fbg: 210.2 mg/dL
  Ht: 39.4%
  Lym: 73.4%
  MCH: 21.2 pg
  MCHC: 34%
  MCV: 62.5 fL
  Mono: 3%
  Neu: 22%
  PT: 12.2 s
  Plat: 112.9 x10_4/uL
  RBC: 630.2 x10_4/ul
  Ret: 5.7%
  WBC: 78.7 x10_2/uL
  KIDNEY_L: 1.1 g
  KIDNEY_R: 1.1 g
  KIDNEY_TOTAL: 2.1 g
  LIVER: 16.9 g
  ALP: 1976.4 IU/L
  ALT: 70.6 IU/L
  AST: 103.4 IU/L
  BUN: 15.8 mg/dL
  CRE: 0.2 mg/dL
  Ca: 10.8 mg/dL
  Cl: 105.2 meq/L
  DBIL: 0.022 mg/dL
  GLC: 192.2 mg/dL
  IP: 7.3 mg/dL
  K: 4.1 meq/L
  LDH: 189.6 IU/L
  Na: 144 meq/L
  PL: 116 mg/dL
  RALB: 2.7 g/dL
  TBIL: 0.028 mg/dL
  TC: 59 mg/dL
  TG: 34 mg/dL
  TP: 5.4 g/dL
  gamma-GTP: 1 IU/L
[6]
  TERMINAL_BW: 275.8 g
  APTT: 15.4 s
  Bas: 0%
  Eos: 0.8%
  Fbg: 225 mg/dL
  Ht: 36.2%
  Lym: 76.6%
  MCH: 21.4 pg
  MCHC: 34.3%
  MCV: 62.4 fL
  Mono: 3.2%
  Neu: 19%
  PT: 12.5 s
  Plat: 129.5 x10_4/uL
  RBC: 580.4 x10_4/ul
  Ret: 5.9%
  WBC: 116.4 x10_2/uL
  KIDNEY_L: 1.2 g
  KIDNEY_R: 1.2 g
  KIDNEY_TOTAL: 2.3 g
  LIVER: 24.1 g
  ALP: 1688.2 IU/L
  ALT: 46.4 IU/L
  AST: 66.4 IU/L
  BUN: 18.8 mg/dL
  CRE: 0.2 mg/dL
  Ca: 11.3 mg/dL
  Cl: 102.8 meq/L
  DBIL: 0.014 mg/dL
  GLC: 201.8 mg/dL
  IP: 7.4 mg/dL
  K: 4 meq/L
  LDH: 142 IU/L
  Na: 142 meq/L
  PL: 143 mg/dL
  RALB: 3 g/dL
  TBIL: 0.026 mg/dL
  TC: 69.4 mg/dL
  TG: 52 mg/dL
  TP: 6.1 g/dL
  gamma-GTP: 0.6 IU/L
[7]
  TERMINAL_BW: 297.8 g
  APTT: 17.3 s
  Bas: 0%
  Eos: 0.8%
  Fbg: 207 mg/dL
  Ht: 38.8%
  Lym: 75.4%
  MCH: 20.3 pg
  MCHC: 34.6%
  MCV: 58.7 fL
  Mono: 3.6%
  Neu: 19.4%
  PT: 12.9 s
  Plat: 121.9 x10_4/uL
  RBC: 661.2 x10_4/ul
  Ret: 4.3%
  WBC: 147.9 x10_2/uL
  KIDNEY_L: 1.3 g
  KIDNEY_R: 1.3 g
  KIDNEY_TOTAL: 2.6 g
  LIVER: 26.1 g
  ALP: 1872.4 IU/L
  ALT: 49.6 IU/L
  AST: 75 IU/L
  BUN: 19.4 mg/dL
  CRE: 0.2 mg/dL
  Ca: 10.4 mg/dL
  Cl: 102.8 meq/L
  DBIL: 0.022 mg/dL
  GLC: 189.6 mg/dL
  IP: 7.1 mg/dL
  K: 3.8 meq/L
  LDH: 141 IU/L
  Na: 141.8 meq/L
  PL: 149.6 mg/dL
  RALB: 2.9 g/dL
  TBIL: 0.032 mg/dL
  TC: 74.8 mg/dL
  TG: 44.4 mg/dL
  TP: 6.1 g/dL
  gamma-GTP: 1.2 IU/L
[8]
  TERMINAL_BW: 351.6 g
  APTT: 16.6 s
  Bas: 0%
  Eos: 1.2%
  Fbg: 216.6 mg/dL
  Ht: 39.4%
  Lym: 74.2%
  MCH: 18.8 pg
  MCHC: 35%
  MCV: 53.7 fL
  Mono: 4%
  Neu: 19.6%
  PT: 12.4 s
  RBC: 734.2 x10_4/ul
  Ret: 2.5%
  WBC: 118.8 x10_2/uL
  KIDNEY_L: 1.6 g
  KIDNEY_R: 1.6 g
  KIDNEY_TOTAL: 3.1 g
  LIVER: 30.8 g
  ALP: 1888.4 IU/L
  ALT: 41.8 IU/L
  AST: 65.8 IU/L
  BUN: 17.2 mg/dL
  CRE: 0.2 mg/dL
  Ca: 10.8 mg/dL
  Cl: 102.2 meq/L
  DBIL: 0.008 mg/dL
  GLC: 189.2 mg/dL
  IP: 7.6 mg/dL
  K: 3.7 meq/L
  LDH: 109 IU/L
  Na: 141.8 meq/L
  PL: 147.4 mg/dL
  RALB: 3 g/dL
  TBIL: 0.048 mg/dL
  TC: 80 mg/dL
  TG: 43.6 mg/dL
  TP: 6.6 g/dL
  gamma-GTP: 1 IU/L

Reference: ChEMBL document CHEMBL3885861, “Open TG-GATES”
